In paper PMC10244169, “Psychedelics promote plasticity by directly binding to BDNF receptor TrkB” (Nature Neuroscience, 2023):

How the values were obtained:
[1] = test system: dendritic arbor complexity of neuronal cultures; test: Dendritogenesis (Sholl analysis) in neuronal cultures (WT and Y433F^+/−); assay type: cell-based, mouse
In short: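 Some cultures were pretreated 10 min with TrkB.FC (200 ng ml^−1) or M100907 (100 nM), which stayed in the medium alongside cumulative psychedelic doses. Sholl analysis counted dendritic intersections every 5 μm from the soma.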

mice = test: Head-twitch response; assay type: in vivo, mouse; set-up: key to Mean, figure 7c (head-twitch response) / Mean Diff., figure 7d, Vehicle:Saline vs. Vehicle:LSD / Mean Diff., figure 7d, Vehicle:Saline vs. M100907:Saline / Mean Diff., figure 7d, M100907:Saline vs. M100907:LSD / Mean, figure 7d (head-twitch response) / Mean Diff., figure 7c, WT:Saline vs. WT:LSD / Head-twitch response, Mean: head twitch counts (scored every 2 min over 30 min); conditions: for Mean, figure 7c (head-twitch response): LSD group
Description: Immediately after the last injection, the animals were placed inside a transparent chamber and their activity video-recorded for 30 min. Similarly to previous studies, head twitches were scored as counts every 2 min by observers blinded to treatments and genotypes.

## CCN(CC)C(=O)C1C=C2c3cccc4[nH]cc(c34)CC2N(C)C1 (centres unmarked) [LSD, lysergic acid diethylamide]
[1]; WT neurons, vehicle mean 32.96
  6g: Mean (dendritogenesis, Sholl analysis): 75.11
[1]; WT:vehicle minus WT:treatment
  6g: Mean Diff. (vehicle vs. treatment), Bonferroni's multiple comparisons test: -42.15
[1]; Y433F+/- neurons, vehicle mean 44.44
  6g: Mean (dendritogenesis, Sholl analysis): 47.24
[1]; Y433F+/-:vehicle minus Y433F+/-:treatment
  6g: Mean Diff. (vehicle vs. treatment), Bonferroni's multiple comparisons test: -2.791
[1]; cultures from WT mice
  dendritic arbor complexity: enhance dendritic arbor complexity
[1]; cultures from Y433F^+/− mice
  dendritic arbor complexity: not Y433F^+/− mice
[1]; fig 6i, Bonferroni's multiple comparisons test
  dendritic arbor complexity, Mean Diff. (Vehicle:vehicle vs. group): -41.23
[1]; fig 6i, treatment:pretreatment groups, Vehicle:vehicle mean 69.72
  dendritic arbor complexity, group mean (Mean 2): 110.9
[1]; fig 6j, distance from soma 10 µm
  Sholl analysis, Mean at distance from soma: 8.895
[1]; fig 6j, distance from soma 15 µm
  Sholl analysis, Mean at distance from soma: 10.2632
[1]; fig 6j, distance from soma 20 µm
  Sholl analysis, Mean at distance from soma: 10.421
[1]; fig 6j, distance from soma 25 µm
  Sholl analysis, Mean at distance from soma: 9.211
[1]; fig 6j, distance from soma 30 µm
  Sholl analysis, Mean at distance from soma: 8.842
[1]; fig 6j, distance from soma 35 µm
  Sholl analysis, Mean at distance from soma: 8.316
[1]; fig 6j, distance from soma 40 µm
  Sholl analysis, Mean at distance from soma: 6.789
[1]; fig 6j, distance from soma 45 µm
  Sholl analysis, Mean at distance from soma: 6.368
[1]; fig 6j, distance from soma 50 µm
  Sholl analysis, Mean at distance from soma: 6.368
[1]; fig 6j, distance from soma 55 µm
  Sholl analysis, Mean at distance from soma: 4.737
[1]; fig 6j, distance from soma 60 µm
  Sholl analysis, Mean at distance from soma: 4.526
[1]; fig 6j, distance from soma 65 µm
  Sholl analysis, Mean at distance from soma: 3.895
[1]; fig 6j, distance from soma 70 µm
  Sholl analysis, Mean at distance from soma: 3.526
[1]; fig 6j, distance from soma 75 µm
  Sholl analysis, Mean at distance from soma: 3.158
[1]; fig 6j, distance from soma 80 µm
  Sholl analysis, Mean at distance from soma: 3.158
[1]; fig 6j, distance from soma 85 µm
  Sholl analysis, Mean at distance from soma: 3.316
[1]; fig 6j, distance from soma 90 µm
  Sholl analysis, Mean at distance from soma: 3.105
[1]; fig 6j, distance from soma 95 µm
  Sholl analysis, Mean at distance from soma: 3.211
[1]; fig 6j, distance from soma 100 µm
  Sholl analysis, Mean at distance from soma: 2.842
[1]; fig 6h, distance from soma 25 µm
  Sholl analysis, Mean at distance from soma: 4.059
[1]; fig 6h, distance from soma 30 µm
  Sholl analysis, Mean at distance from soma: 3.529
[1]; fig 6h, distance from soma 35 µm
  Sholl analysis, Mean at distance from soma: 3
[1]; fig 6h, distance from soma 40 µm
  Sholl analysis, Mean at distance from soma: 3.059
[1]; fig 6h, distance from soma 45 µm
  Sholl analysis, Mean at distance from soma: 2.412
[1]; fig 6h, distance from soma 50 µm
  Sholl analysis, Mean at distance from soma: 2.471
[1]; fig 6h, distance from soma 55 µm
  Sholl analysis, Mean at distance from soma: 2.294
[1]; fig 6h, distance from soma 60 µm
  Sholl analysis, Mean at distance from soma: 1.882
[1]; fig 6h, distance from soma 65 µm
  Sholl analysis, Mean at distance from soma: 1.765
[1]; fig 6h, distance from soma 70 µm
  Sholl analysis, Mean at distance from soma: 1.294
[1]; fig 6h, distance from soma 75 µm
  Sholl analysis, Mean at distance from soma: 1.353
[1]; fig 6h, distance from soma 80 µm
  Sholl analysis, Mean at distance from soma: 1.353
[1]; fig 6h, distance from soma 85 µm
  Sholl analysis, Mean at distance from soma: 1
[1]; fig 6h, distance from soma 90 µm
  Sholl analysis, Mean at distance from soma: 1.059
[1]; fig 6h, distance from soma 95 µm
  Sholl analysis, Mean at distance from soma: 1
[1]; fig 6h, distance from soma 100 µm
  Sholl analysis, Mean at distance from soma: 0.7059
[1]; first 6h table (N as WT), distance from soma 10 µm
  6h: Mean (Sholl analysis): 6.789
[1]; first 6h table (N as WT), distance from soma 15 µm
  6h: Mean (Sholl analysis): 8.684
[1]; first 6h table (N as WT), distance from soma 20 µm
  6h: Mean (Sholl analysis): 8.526
[1]; first 6h table (N as WT), distance from soma 25 µm
  6h: Mean (Sholl analysis): 6.474
[1]; first 6h table (N as WT), distance from soma 30 µm
  6h: Mean (Sholl analysis): 6
[1]; first 6h table (N as WT), distance from soma 35 µm
  6h: Mean (Sholl analysis): 5.211
[1]; first 6h table (N as WT), distance from soma 40 µm
  6h: Mean (Sholl analysis): 3.632
[1]; first 6h table (N as WT), distance from soma 45 µm
  6h: Mean (Sholl analysis): 3.474
[1]; first 6h table (N as WT), distance from soma 50 µm
  6h: Mean (Sholl analysis): 3
[1]; first 6h table (N as WT), distance from soma 55 µm
  6h: Mean (Sholl analysis): 2.684
[1]; first 6h table (N as WT), distance from soma 60 µm
  6h: Mean (Sholl analysis): 3.105
[1]; first 6h table (N as WT), distance from soma 65 µm
  6h: Mean (Sholl analysis): 2.579
[1]; first 6h table (N as WT), distance from soma 70 µm
  6h: Mean (Sholl analysis): 2.421
[1]; first 6h table (N as WT), distance from soma 75 µm
  6h: Mean (Sholl analysis): 2.263
[1]; first 6h table (N as WT), distance from soma 80 µm
  6h: Mean (Sholl analysis): 2.421
[1]; first 6h table (N as WT), distance from soma 85 µm
  6h: Mean (Sholl analysis): 2
[1]; first 6h table (N as WT), distance from soma 90 µm
  6h: Mean (Sholl analysis): 2.421
[1]; first 6h table (N as WT), distance from soma 95 µm
  6h: Mean (Sholl analysis): 1.632
[1]; first 6h table (N as WT), distance from soma 100 µm
  6h: Mean (Sholl analysis): 1.789
[1]; second 6h table (N as Y433F), distance from soma 10 µm
  6h: Mean (Sholl analysis): 5.294
[1]; second 6h table (N as Y433F), distance from soma 15 µm
  6h: Mean (Sholl analysis): 4.941
[1]; second 6h table (N as Y433F), distance from soma 20 µm
  6h: Mean (Sholl analysis): 4.765
mice; M100907:LSD group
  Mean, figure 7d (head-twitch response): 0.4
mice; Vehicle:LSD group
  Mean, figure 7d (head-twitch response): 33
mice; WT mice
  Mean, figure 7c (head-twitch response): 76.8
mice; WT mice, saline minus LSD, Bonferroni's multiple comparisons test
  Mean Diff., figure 7c, WT:Saline vs. WT:LSD: -73.8
mice; Y433F+/- mice
  Mean, figure 7c (head-twitch response): 67.8
mice; Y433F+/- mice, saline minus LSD, Bonferroni's multiple comparisons test
  Mean Diff., figure 7c, Y433F+/-:Saline vs. Y433F+/-:LSD: -63.2
mice; Y433F^+/− mice treated with LSD 0.1 mg kg^−1
  head-twitch response: occurs normally
mice; ext fig 7c, TrkB.WT mice, Time (min) 2
  Head-twitch response, Mean: 2.6
mice; ext fig 7c, TrkB.WT mice, Time (min) 4
  Head-twitch response, Mean: 6.4
mice; ext fig 7c, TrkB.WT mice, Time (min) 6
  Head-twitch response, Mean: 10.6
mice; ext fig 7c, TrkB.WT mice, Time (min) 8
  Head-twitch response, Mean: 7.8
mice; ext fig 7c, TrkB.WT mice, Time (min) 10
  Head-twitch response, Mean: 6.6
mice; ext fig 7c, TrkB.WT mice, Time (min) 12
  Head-twitch response, Mean: 7.6
mice; ext fig 7c, TrkB.WT mice, Time (min) 14
  Head-twitch response, Mean: 5.4
mice; ext fig 7c, TrkB.WT mice, Time (min) 16
  Head-twitch response, Mean: 4.8
mice; ext fig 7c, TrkB.WT mice, Time (min) 18
  Head-twitch response, Mean: 3.6
mice; ext fig 7c, TrkB.WT mice, Time (min) 20
  Head-twitch response, Mean: 4
mice; ext fig 7c, TrkB.WT mice, Time (min) 22
  Head-twitch response, Mean: 4.6
mice; ext fig 7c, TrkB.WT mice, Time (min) 24
  Head-twitch response, Mean: 4.8
mice; ext fig 7c, TrkB.WT mice, Time (min) 26
  Head-twitch response, Mean: 2
mice; ext fig 7c, TrkB.WT mice, Time (min) 28
  Head-twitch response, Mean: 3.2
mice; ext fig 7c, TrkB.WT mice, Time (min) 30
  Head-twitch response, Mean: 2.6
mice; ext fig 7c, TrkB.Y433F mice, Time (min) 2
  Head-twitch response, Mean: 3
mice; ext fig 7c, TrkB.Y433F mice, Time (min) 4
  Head-twitch response, Mean: 6.2
mice; ext fig 7c, TrkB.Y433F mice, Time (min) 6
  Head-twitch response, Mean: 9.4
mice; ext fig 7c, TrkB.Y433F mice, Time (min) 8
  Head-twitch response, Mean: 8.8
mice; ext fig 7c, TrkB.Y433F mice, Time (min) 10
  Head-twitch response, Mean: 6.8
mice; ext fig 7c, TrkB.Y433F mice, Time (min) 12
  Head-twitch response, Mean: 6.2
mice; ext fig 7c, TrkB.Y433F mice, Time (min) 14
  Head-twitch response, Mean: 4.2
mice; ext fig 7c, TrkB.Y433F mice, Time (min) 16
  Head-twitch response, Mean: 5
mice; ext fig 7c, TrkB.Y433F mice, Time (min) 18
  Head-twitch response, Mean: 3.2
mice; ext fig 7c, TrkB.Y433F mice, Time (min) 20
  Head-twitch response, Mean: 2.6
mice; ext fig 7c, TrkB.Y433F mice, Time (min) 22
  Head-twitch response, Mean: 3
mice; ext fig 7c, TrkB.Y433F mice, Time (min) 24
  Head-twitch response, Mean: 3.2
mice; ext fig 7c, TrkB.Y433F mice, Time (min) 26
  Head-twitch response, Mean: 2.2
mice; ext fig 7c, TrkB.Y433F mice, Time (min) 28
  Head-twitch response, Mean: 1.8
mice; ext fig 7c, TrkB.Y433F mice, Time (min) 30
  Head-twitch response, Mean: 2.4
mice; ext fig 7d, Time (min) 2
  Head-twitch response, Mean: 0.2
mice; ext fig 7d, Time (min) 4
  Head-twitch response, Mean: 2.2
mice; ext fig 7d, Time (min) 6
  Head-twitch response, Mean: 2.6
mice; ext fig 7d, Time (min) 8
  Head-twitch response, Mean: 4.2
mice; ext fig 7d, Time (min) 10
  Head-twitch response, Mean: 3
mice; ext fig 7d, Time (min) 12
  Head-twitch response, Mean: 3.8
mice; ext fig 7d, Time (min) 14
  Head-twitch response, Mean: 3.2
mice; ext fig 7d, Time (min) 16
  Head-twitch response, Mean: 2.2
mice; ext fig 7d, Time (min) 18
  Head-twitch response, Mean: 2.4
mice; ext fig 7d, Time (min) 20
  Head-twitch response, Mean: 1.8
mice; ext fig 7d, Time (min) 22
  Head-twitch response, Mean: 1.2
mice; ext fig 7d, Time (min) 24
  Head-twitch response, Mean: 2.2
mice; ext fig 7d, Time (min) 26
  Head-twitch response, Mean: 1.4
mice; ext fig 7d, Time (min) 28
  Head-twitch response, Mean: 1.8
mice; ext fig 7d, Time (min) 30
  Head-twitch response, Mean: 0.8
mice; saline minus LSD, Bonferroni's multiple comparisons test
  Mean Diff., figure 7d, Vehicle:Saline vs. Vehicle:LSD: -30.6
mice; with M100907, saline minus LSD, Bonferroni's multiple comparisons test
  Mean Diff., figure 7d, M100907:Saline vs. M100907:LSD: -0.2
